Assays:
Format in all cases: cell-based
[1] = tested on: HT-29 (colorectal carcinoma); assay: In vitro cytotoxic activity (GI50), method (b), propidium iodide; conditions: Homo sapiens, 96 hrs
Protocol: (§1) Row H was filled wih medium only (150 μL, negative control-medium).

[2] = tested on: MDA-MB-231 (mammary gland adenocarcinoma); assay: as above; conditions: Homo sapiens, 96 hrs
Protocol: as §1

[3] = tested on: PC-3 (prostate adenocarcinoma); assay: as above; conditions: 96 hrs
Protocol: as §1

[4] = tested on: SF268 (CNS); assay: as above; conditions: Homo sapiens, SF-268, 96 hrs
Protocol: as §1

[5] = tested on: HT-29, SF-268, PC-3, MDA-MB-231; assay: Average GI50 over the four cell lines, method (b); conditions: for anticancer activity compared with Compound 1: four cell lines; for GI50: values > 30 not considered
Protocol: as §1

SMILES | GI50 [1] [µM] | GI50 [2] [µM] | GI50 [3] [µM] | GI50 [4] [µM] | anticancer activity compared with Compound 1 [5] | GI50 [5] [µM]
CC(C)=CCC/C(C)=C/CC/C(C)=C/CN1C(=O)c2cccc(O)c2Nc2c1cc(O)c(Br)c2O [Compound 97, 10-(farnesyl)-7-bromo-4,6,8-trihydroxy-5,10-dihydro-dibenzo[b,e][1,4]diazepin-11-one] | 2.02 | 2.02 | 1.19 | 2.04 | generally more active than Compound 1 | 1.82
CCN1c2c(O)cccc2C(=O)N(C/C=C(\C)CC/C=C(\C)CCC=C(C)C)c2cc(O)cc(O)c21 [Compound 14, 10-farnesyl-4,6,8-trihydroxy-5-ethyl-5,10-dihydro-dibenzo[b,e][1,4]diazepin-11-one] | 2.04 | 2.16 | 1.15 | 0.76 |  | 1.53
CCCCN1c2c(O)cccc2C(=O)N(C/C=C(\C)CC/C=C(\C)CCC=C(C)C)c2cc(O)cc(O)c21 [Compound 64, 10-farnesyl-4,6,8-trihydroxy-5-n-butyl-5,10-dihydro-dibenzo[b,e][1,4]diazepin-11-one] | 2.5 | 1.39 | 1.14 | 0.56 | better anticancer activity than Compound 1 | 1.4
COC(C)(CCC=C(C)C)CCC/C(C)=C/CN1C(=O)c2cccc(O)c2N(C)c2c(O)cc(O)cc21 (centres unmarked) [Compound 80, 10-(7-methoxy-3,7,11-trimethyldodeca-2,10-dienyl)-4,6,8-trihydroxy-5-methyl-5,10-dihydro-dibenzo[b,e][1,4]diazepin-11-one] | 1.43 | 1.02 | 1.8 | 0.33 | better anticancer activity than Compound 1 | 1.14
COC(C)(C)CCC/C(C)=C/CC/C(C)=C/CN1C(=O)c2cccc(O)c2Nc2c(O)cc(O)cc21 [Compound 82, 10-(11-methoxy-3,7,11-trimethyl-2,6-dodecadienyl)-4,6,8-trihydroxy-5,10-dihydro-dibenzo[b,e][1,4]diazepin-11-one] | 23.6 | 11 | 13.4 | 4.75 |  | 13.2
[2H]C([2H])([2H])N1c2c(O)cccc2C(=O)N(C/C=C(\C)CC/C=C(\C)CCC=C(C)C)c2cc(O)cc(O)c21 [Compound 98, 10-Farnesyl-4,6,8-trihydroxy-5-(trideuteriomethyl)-5,10-dihydro-dibenzo[b,e][1,4]diazepin-11-one] | 0.69 | 0.51 | 0.82 | 0.16 | better anticancer activity than Compound 1 | 0.54
CCCCCCN1c2c(O)cccc2C(=O)N(C/C=C(\C)CC/C=C(\C)CCC=C(C)C)c2cc(O)cc(O)c21 [Compound 67, 10-farnesyl-4,6,8-trihydroxy-5-n-hexyl-5,10-dihydro-dibenzo[b,e][1,4]diazepin-11-one] | 2.44 | 1.92 | 1.33 | 0.53 | better anticancer activity than Compound 1 | 1.55
CC(C)CCCC(C)CCCC(C)CCN1C(=O)c2cccc(O)c2N(C)c2c(O)cc(O)cc21 (centres unmarked) [Compound 78, 10-(3,7,11-trimethyldodecyl)-4,6,8-trihydroxy-5-methyl-5,10-dihydro-dibenzo[b,e][1,4]diazepin-11-one] | 0.29 | 0.24 | 0.23 | 0.07 | better anticancer activity than Compound 1 | 0.21
C/C(=C\CN1C(=O)c2cccc(O)c2Nc2c(O)cc(O)cc21)CC/C=C(\C)CCC1OC1(C)C (centres unmarked) [Compound 18] | > 30 | > 30 | > 30 | 7.45 |  | 

Source: patent US20060079512A1, “Dibenzodiazepinone analogues, processes for their production and their use as pharmaceuticals” (Ecopia BioSciences, Inc., priority 2003, published 2006)
